We go through 18 molecules from ChEMBL document CHEMBL1129578, “Tetrahydronaphthalenes: influence of heterocyclic substituents on inhibition of steroid enzymes P450 arom and P450 17” (J Med Chem, 1996).

SMILES strings stand for the structures.

One test has as its target T1, Steroid 17-alpha-hydroxylase/17,20 lyase (Rattus norvegicus, UniProt P11715).
T1 sequence (P11715 whole entry): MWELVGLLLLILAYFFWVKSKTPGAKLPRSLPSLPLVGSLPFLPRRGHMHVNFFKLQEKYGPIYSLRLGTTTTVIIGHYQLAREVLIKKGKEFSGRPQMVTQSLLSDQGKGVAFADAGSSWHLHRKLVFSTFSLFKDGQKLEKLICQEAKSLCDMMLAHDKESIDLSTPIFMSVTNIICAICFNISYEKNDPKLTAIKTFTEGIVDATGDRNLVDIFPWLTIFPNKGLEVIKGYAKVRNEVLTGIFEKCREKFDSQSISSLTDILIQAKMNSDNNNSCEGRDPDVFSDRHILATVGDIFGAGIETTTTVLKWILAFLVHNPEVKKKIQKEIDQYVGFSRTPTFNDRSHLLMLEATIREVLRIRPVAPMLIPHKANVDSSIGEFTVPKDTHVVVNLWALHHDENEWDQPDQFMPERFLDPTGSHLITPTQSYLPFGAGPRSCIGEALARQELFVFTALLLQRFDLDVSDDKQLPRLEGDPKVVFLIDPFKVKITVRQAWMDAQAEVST
Details: not given
Regarding `O=C1/C(=C/c2ccccc2)CCc2ccccc21`, the IC50 is < 10 µM.

With `O=C1c2ccccc2CCC1C(O)c1cccnn1` (centres undefined), the IC50 is < 10 µM.

Turning to `O=C1c2ccccc2CCC1C(O)c1ccncn1` (centres undefined), the IC50 is < 10 µM.

As to `O=C1c2ccccc2CCC1C(O)c1cnccn1` (centres undefined), the half-maximal inhibitory concentration (IC50) was < 10 µM.

The molecule `O=C1/C(=C/c2cncs2)CCc2ccccc21` returned an IC50 of 21 µM.

With `O=C1/C(=C/c2ccnnc2)CCc2ccccc21`, the half-inhibitory concentration (IC50) is < 10 µM.

`O=C1/C(=C/c2cc[nH]n2)CCc2ccccc21`: the IC50 was < 10 µM.

`O=C1c2ccccc2CCC1C(O)c1ccnnc1` (centres undefined): the IC50 was < 10 µM.

On to `c1ccc2c(c1)CCC1C(c3ccsc3)C21` (centres undefined), for which the IC50 was < 10 µM.

With `O=C1/C(=C/c2cccnn2)CCc2ccccc21`, the IC50 was < 10 µM.

As to `O=C1/C(=C/c2cccnc2)CCc2ccccc21`, half-maximal inhibition (IC50) required 48 µM.

Consider `c1cncc(C2C3CCc4ccccc4C32)c1` (centres undefined), for which the IC50 is 87 µM.

The molecule `O=C1/C(=C/c2ccncc2)CCc2ccccc21` registered an IC50 of 37 µM. This IC50 is about 2.4-fold lower than that of the molecule before.

With `O=C1/C(=C/c2ccsc2)CCc2ccccc21`, the IC50 is < 10 µM.

Consider `O=C1/C(=C/c2ccccn2)CCc2ccccc21`, for which the 50% inhibitory concentration (IC50) is < 10 µM.

Regarding `c1ccc(C2C3CCc4ccccc4C32)nc1` (centres undefined), the IC50 is < 10 µM.

In the case of `c1ccc(C2C3CCc4ccccc4C32)cc1` (centres undefined), the IC50 is < 10 µM.

The molecule `c1ccc2c(c1)CCC1C(c3ccncc3)C21` (centres undefined) returned an IC50 of 36 µM.

The target of a further test is T2, Cytochrome P450 11B2, mitochondrial (Homo sapiens, UniProt P19099).
T2 sequence (P19099 whole entry): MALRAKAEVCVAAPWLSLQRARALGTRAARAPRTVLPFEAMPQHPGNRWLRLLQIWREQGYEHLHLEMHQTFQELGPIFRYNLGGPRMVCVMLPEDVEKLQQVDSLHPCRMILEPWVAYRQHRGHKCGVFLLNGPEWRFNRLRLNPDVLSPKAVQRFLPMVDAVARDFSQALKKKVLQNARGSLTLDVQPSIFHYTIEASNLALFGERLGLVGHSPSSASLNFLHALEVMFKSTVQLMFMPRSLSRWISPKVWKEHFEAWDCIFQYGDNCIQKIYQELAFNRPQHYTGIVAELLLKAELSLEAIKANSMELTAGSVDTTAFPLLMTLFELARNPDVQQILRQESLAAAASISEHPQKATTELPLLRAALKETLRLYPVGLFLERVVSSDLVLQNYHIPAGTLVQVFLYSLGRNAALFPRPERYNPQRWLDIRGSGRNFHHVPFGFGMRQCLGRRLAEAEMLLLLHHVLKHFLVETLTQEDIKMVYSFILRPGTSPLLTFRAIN
To be noted: Adrenal gland.
Description: Inhibitory activity against Steroidgenic Cytochrome P450 C18 using Bovine adrenal mitochondria
Take `c1ccc2c(c1)CCC1C(c3ccsc3)C21` (centres undefined): the IC50 was < 10 µM.

One may read the IC50 as the concentration needed to halve the response being measured.
